Tests used:
[1] = tested on: HLA-A*02:01+ HeLa cells / gp100mel-specific CD8+ T cells; assay: titration of peptide-pulsed HeLa cells with specific CD8+ T cells (IFN-γ release); assay type: cell-based, human; conditions: E:T 1:1, TCR-transduced CD8+ T cells
Experimental: Therefore we first performed titration experiments with HeLa cells expressing the target HLA-A molecules, pulsed with the antigenic peptides and co-cultivated them with the respective peptide-specific CD8^+ T-cell clones (Fig. 6A–E upper panels). […] T cell assays were performed with transduced CD8^+ T cells expressing the corresponding TCR. […] We next transfected HeLa^HLA-A*03:01+ cells with plasmids encoding the M210gp100^mel variant, or the NY-ESO-1 proteins together with the three HLA-A*32:01, -A*02:01 and -A*03:01molecules.
The data are the mean and bars the SD of three replicates of a representative assay of independent experiments (n = 2–6). […] Values are the means and bars the SEM of independent experiments (n = 2–7; each experiment with three independent replicates). […] The IFN-γ-release in the medium was measured by ELISA after 16 hrs co-culture.

[2] = tested on: HLA-A*03:01/-A*02:01/-A*32:01+ HeLa cells / specific CD8+ T cell clones; assay: semi-quantitative cell surface presentation of epitopes (IFN-γ release vs peptide titration); assay type: cell-based, human; conditions: E:T 4:1
CD8+ T cells = tested on: CD8+ T cells; parameters: method as in earlier work; conditions: T210M substitution; ref 10 (supplement); cited from earlier work
HLA-A*02:01 = HLA-A*02:01 (Homo sapiens, UniProt P04439, D140Y/D185E/D98H/E176V/E277Q/G131W/G231S/I119V/I121R/I166T/I218V/L300P/L318F/N151K/N90K/P208A/P217A/Q86G/Q94H/R138H/R169H/T345S); conditions: stated as known, reference not given; cited from earlier work

## M210gp100^mel209–217: gp100mel209–217 in which anchor residue T210 was exchanged with a Methionine
[1]
  titration curve (IFN-γ release of specific T cells): satisfactory titration curves were obtained
[2]
  amount vs gp100mel40–42/47–52: comparable
CD8+ T cells
  immunogenicity and CD8+ T cell response vs gp100mel209-217: increase
HLA-A*02:01
  HLA-A*02:01 binding: better HLA-A *02:01 binding

— paper PMC4822137, “Proteasomes generate spliced epitopes by two different mechanisms and as efficiently as non-spliced epitopes” (Scientific Reports, 2016)
